# Measurements from ChEMBL document CHEMBL3124887, “Synthesis and anti-inflammatory activity of aromatic glucosinolates” (2013).
# Legend:
# Format in all cases: functional
# THP-1 [1] = assay: Antiinflammatory activity in human THP1 cells assessed as inhibition of LPS-induced TNF-alpha release measured as TNF-alpha level at 0.5 uM after 4hrs by ELISA relative to control
# THP-1 [2] = assay: Antiinflammatory activity in human THP1 cells assessed as inhibition of LPS-induced TNF-alpha release measured as TNF-alpha level at 5 uM after 4hrs by ELISA relative to control
# THP-1 [3] = assay: Antiinflammatory activity in human THP1 cells assessed as inhibition of LPS-induced TNF-alpha release measured as TNF-alpha level at 10 uM after 4hrs by ELISA relative to control
# THP-1 [4] = assay: Antiinflammatory activity in human THP1 cells assessed as inhibition of LPS-induced TNF-alpha release measured as TNF-alpha level at 0.1 uM after 4hrs by ELISA relative to control
# THP-1 [5] = assay: Antiinflammatory activity in human THP1 cells assessed as inhibition of LPS-induced TNF-alpha release measured as TNF-alpha level at 15 uM after 4hrs by ELISA relative to control
# THP-1 [6] = assay: Antiinflammatory activity in human THP1 cells assessed as inhibition of LPS-induced TNF-alpha release measured as TNF-alpha level at 1 uM after 4hrs by ELISA relative to control
SMILES,Activity (THP-1 [1]) [pg/mL],Activity (THP-1 [2]) [pg/mL],Activity (THP-1 [3]) [pg/mL],Activity (THP-1 [4]) [pg/mL],Activity (THP-1 [5]) [pg/mL],Activity (THP-1 [6]) [pg/mL]
O=S(=O)([O-])O/N=C(\S[C@@H]1O[C@H](CO)[C@@H](O)[C@H](O)[C@H]1O)c1ccccc1.[K+],194.44,166.58,144.15,231.15,103.57,–
O=S(=O)([O-])O/N=C(/Cc1ccccc1)S[C@@H]1O[C@H](CO)[C@@H](O)[C@H](O)[C@H]1O.[K+],–,–,206.65,275.48,201.87,248.4
O=S(=O)([O-])O/N=C(/CCc1ccccc1)S[C@@H]1O[C@H](CO)[C@@H](O)[C@H](O)[C@H]1O.[K+],–,115.25,96.86,–,74.76,138.43
O=S(=O)([O-])O/N=C(/C=C/c1ccccc1)S[C@@H]1O[C@H](CO)[C@@H](O)[C@H](O)[C@H]1O.[K+],–,–,122.91,–,79.23,149.06
COc1ccc(/C(=N/OS(=O)(=O)[O-])S[C@@H]2O[C@H](CO)[C@@H](O)[C@H](O)[C@H]2O)cc1OC.[K+],161.76,128.21,93.1,–,69.2,144.57
O=S(=O)([O-])O/N=C(\S[C@@H]1O[C@H](CO)[C@@H](O)[C@H](O)[C@H]1O)c1cccc(Cl)c1Cl.[K+],–,162,157.09,–,114.17,–
O=S(=O)([O-])O/N=C(\S[C@@H]1O[C@H](CO)[C@@H](O)[C@H](O)[C@H]1O)c1ccc(Br)cc1.[K+],–,173.17,122.04,165.27,111.1,–
Oc1cc(O)c2c(c1)OC(c1ccc(O)c(O)c1)C(O)C2 (stereo unspecified) [CATECHIN],303.98,282.65,–,–,255.94,–
